# Calls of active or inactive are those of the source.
# Key:
# [1] = molecular target: Nonstructural protein 1 (Influenza A virus, UniProt Q194T2); type: functional, Influenza A virus (A/California/07/2009(H1N1))
# [2] = cells; type: functional, cell-based
# [3] = C. albicans growth with fluconazole, confirmation, fluorescence, retest (AID 2467); type: functional, cell-based
# [4] = cells; type: functional, cell-based; remark: listed apart in the source
# [5] = NIH-3T3 fibroblast cytotoxicity, dose response, cytotoxicity control, cell-based, fluorescence, Alamar Blue, secondary assay (AID 2327); type: functional;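 further: NIH-3T3 mouse fibroblasts cultured with fluconazole at 8 µg/mL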
# [6] = molecular target: T1, RNA-binding protein pos-1 (Caenorhabditis elegans, UniProt G5EF15); experiment: inhibitors of POS-1/mex-3 RNA binding, dose response, biochemical, fluorescence polarization (AID 1964);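 further: purified POS-1 fused to maltose binding protein made in E. coli; potency of compounds blocking POS-1 binding to fluorescent RNA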
# T1 sequence (G5EF15 whole entry): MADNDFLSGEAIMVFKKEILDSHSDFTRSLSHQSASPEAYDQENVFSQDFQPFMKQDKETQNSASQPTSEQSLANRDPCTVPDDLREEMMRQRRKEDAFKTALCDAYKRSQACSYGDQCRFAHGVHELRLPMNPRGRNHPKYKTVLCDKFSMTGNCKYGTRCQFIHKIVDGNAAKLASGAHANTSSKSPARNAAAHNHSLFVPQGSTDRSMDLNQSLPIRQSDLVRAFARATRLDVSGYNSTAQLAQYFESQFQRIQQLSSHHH
# [7] = molecular target: T2, Zinc finger protein mex-5 (Caenorhabditis elegans, UniProt Q9XUB2); experiment: MEX-5/TCR-2 RNA interaction inhibitors, dose response, biochemical, C. elegans, fluorescence polarization (AID 1960)
# T2 sequence (Q9XUB2 whole entry): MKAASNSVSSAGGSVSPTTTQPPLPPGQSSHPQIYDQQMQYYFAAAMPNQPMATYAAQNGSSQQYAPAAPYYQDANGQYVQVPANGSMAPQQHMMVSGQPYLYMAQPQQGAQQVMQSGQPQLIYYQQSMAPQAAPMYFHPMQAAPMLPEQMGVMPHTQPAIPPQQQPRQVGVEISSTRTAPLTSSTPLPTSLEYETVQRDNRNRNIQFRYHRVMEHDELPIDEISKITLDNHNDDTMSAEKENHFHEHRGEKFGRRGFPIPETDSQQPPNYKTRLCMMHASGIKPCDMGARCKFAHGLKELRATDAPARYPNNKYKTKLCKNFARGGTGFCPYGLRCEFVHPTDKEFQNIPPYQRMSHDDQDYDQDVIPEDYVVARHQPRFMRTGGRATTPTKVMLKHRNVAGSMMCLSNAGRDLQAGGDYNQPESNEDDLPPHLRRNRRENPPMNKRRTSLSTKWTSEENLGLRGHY
# [8] = cells; type: functional
# [9] = Shn3 3'UTR reporter inhibitors, dose response, cell-based, Clone20 osteoblasts, firefly luciferase, cherry-picked (AID 624132); type: functional;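 further: firefly luciferase luminescence from reporter carrying the Shn3 3'UTR in osteoblasts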
# [10] = molecular target: Large T antigen (Simian virus 40, UniProt P03070); type: functional, Betapolyomavirus macacae;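 further: Confirmatory-stage PubChem screen for compounds that inhibit SV40 T antigen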
# Large T antigen, sequence (P03070 whole entry): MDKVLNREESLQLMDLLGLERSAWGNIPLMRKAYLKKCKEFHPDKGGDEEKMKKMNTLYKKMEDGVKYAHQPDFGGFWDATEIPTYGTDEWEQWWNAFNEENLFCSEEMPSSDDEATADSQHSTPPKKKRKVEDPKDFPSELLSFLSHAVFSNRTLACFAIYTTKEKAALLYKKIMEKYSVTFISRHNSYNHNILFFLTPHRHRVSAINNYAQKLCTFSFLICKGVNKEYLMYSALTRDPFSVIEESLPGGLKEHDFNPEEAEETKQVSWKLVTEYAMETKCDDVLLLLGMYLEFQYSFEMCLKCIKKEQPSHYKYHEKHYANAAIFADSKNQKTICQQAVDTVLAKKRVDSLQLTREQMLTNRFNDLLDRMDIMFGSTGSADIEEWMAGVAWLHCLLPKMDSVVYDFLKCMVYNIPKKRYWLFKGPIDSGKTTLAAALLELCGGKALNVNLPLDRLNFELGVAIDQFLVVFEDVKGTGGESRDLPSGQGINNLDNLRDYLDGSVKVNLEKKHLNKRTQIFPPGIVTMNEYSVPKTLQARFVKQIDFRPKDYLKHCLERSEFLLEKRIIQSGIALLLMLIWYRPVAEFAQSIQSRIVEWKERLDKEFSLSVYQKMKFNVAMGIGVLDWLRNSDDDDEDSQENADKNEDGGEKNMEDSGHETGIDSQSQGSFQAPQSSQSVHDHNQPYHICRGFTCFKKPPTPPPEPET
# [11] = molecular target: T3, Rac GTPase-activating protein 1 (Homo sapiens, UniProt Q9H0H5); experiment: MgcRacGAP GTPase-activating activity inhibitors, confirmation, biochemical, ADP Hunter fluorescence, primary and confirmatory (AID 624330); type: functional
# T3 sequence (Q9H0H5 whole entry): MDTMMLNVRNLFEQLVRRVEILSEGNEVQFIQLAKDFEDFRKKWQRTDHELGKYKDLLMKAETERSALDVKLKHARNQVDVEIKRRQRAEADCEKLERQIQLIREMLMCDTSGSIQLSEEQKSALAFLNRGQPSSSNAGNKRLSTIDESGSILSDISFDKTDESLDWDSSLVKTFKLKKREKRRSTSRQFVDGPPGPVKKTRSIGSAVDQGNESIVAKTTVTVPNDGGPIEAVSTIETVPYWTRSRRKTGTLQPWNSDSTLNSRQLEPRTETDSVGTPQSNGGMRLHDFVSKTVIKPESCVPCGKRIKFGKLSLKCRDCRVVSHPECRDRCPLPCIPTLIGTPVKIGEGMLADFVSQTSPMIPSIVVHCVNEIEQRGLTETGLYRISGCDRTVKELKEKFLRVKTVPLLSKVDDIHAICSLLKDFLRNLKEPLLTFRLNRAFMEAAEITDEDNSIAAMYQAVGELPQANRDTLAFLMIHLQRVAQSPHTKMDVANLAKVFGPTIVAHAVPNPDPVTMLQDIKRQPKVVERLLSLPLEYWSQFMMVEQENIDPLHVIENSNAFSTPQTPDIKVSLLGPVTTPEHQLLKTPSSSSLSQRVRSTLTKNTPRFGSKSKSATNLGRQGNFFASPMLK
# [12] = molecular target: T4, Corticotropin-releasing factor receptor 2/Corticotropin-releasing factor-binding protein (Homo sapiens, UniProt P24387+Q13324); experiment: activators of CRF receptor 2 with binding protein – uHTS hits, confirmation (AID 602473); type: functional; settings: read-out: EC50_Mean
# T4 sequence (Q13324 whole entry): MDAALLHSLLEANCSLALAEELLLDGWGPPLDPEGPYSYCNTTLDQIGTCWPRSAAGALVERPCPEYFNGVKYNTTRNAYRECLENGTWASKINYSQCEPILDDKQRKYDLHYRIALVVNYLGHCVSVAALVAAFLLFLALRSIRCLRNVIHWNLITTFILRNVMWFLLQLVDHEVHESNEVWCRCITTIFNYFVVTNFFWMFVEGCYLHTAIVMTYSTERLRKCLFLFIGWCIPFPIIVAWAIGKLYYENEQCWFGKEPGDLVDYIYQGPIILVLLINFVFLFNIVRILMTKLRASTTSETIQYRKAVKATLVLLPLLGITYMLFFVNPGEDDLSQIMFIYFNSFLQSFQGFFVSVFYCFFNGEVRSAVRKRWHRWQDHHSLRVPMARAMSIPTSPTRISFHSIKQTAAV
# T4 sequence (P24387 whole entry): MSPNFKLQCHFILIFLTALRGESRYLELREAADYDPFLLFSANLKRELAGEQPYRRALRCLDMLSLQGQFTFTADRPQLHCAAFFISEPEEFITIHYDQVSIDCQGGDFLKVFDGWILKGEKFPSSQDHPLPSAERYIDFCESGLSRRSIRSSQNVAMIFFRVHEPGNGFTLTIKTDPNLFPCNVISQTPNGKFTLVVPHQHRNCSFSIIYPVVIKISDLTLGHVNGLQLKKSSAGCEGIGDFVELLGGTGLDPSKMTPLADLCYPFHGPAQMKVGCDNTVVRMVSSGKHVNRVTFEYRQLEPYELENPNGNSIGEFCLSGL
# [13] = molecular target: Cytochrome P450 2C19 (Homo sapiens, UniProt P33261); experiment: Cytochrome panel assay with activity outcomes. Panel member name: p450-cyp2c19 Compounds with AC50 equal or less than 10 uM are considered active; type: functional
# Cytochrome P450 2C19, sequence (P33261 whole entry): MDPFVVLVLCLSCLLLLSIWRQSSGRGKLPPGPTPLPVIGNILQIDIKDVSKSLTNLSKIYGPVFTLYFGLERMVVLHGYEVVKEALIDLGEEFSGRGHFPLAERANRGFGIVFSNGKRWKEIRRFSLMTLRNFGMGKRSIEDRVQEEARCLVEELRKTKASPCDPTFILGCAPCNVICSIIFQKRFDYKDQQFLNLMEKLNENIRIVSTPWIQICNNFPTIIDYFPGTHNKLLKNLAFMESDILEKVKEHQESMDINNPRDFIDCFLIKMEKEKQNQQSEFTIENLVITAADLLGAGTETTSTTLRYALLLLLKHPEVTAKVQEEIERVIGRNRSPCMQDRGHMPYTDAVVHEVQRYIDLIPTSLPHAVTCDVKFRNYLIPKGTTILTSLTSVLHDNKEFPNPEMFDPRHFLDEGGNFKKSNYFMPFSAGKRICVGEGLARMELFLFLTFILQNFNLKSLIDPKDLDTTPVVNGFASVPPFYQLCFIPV
# [14] = molecular target: Cytochrome P450 2C9 (Homo sapiens, UniProt P11712)
# Cytochrome P450 2C9, sequence (P11712 whole entry): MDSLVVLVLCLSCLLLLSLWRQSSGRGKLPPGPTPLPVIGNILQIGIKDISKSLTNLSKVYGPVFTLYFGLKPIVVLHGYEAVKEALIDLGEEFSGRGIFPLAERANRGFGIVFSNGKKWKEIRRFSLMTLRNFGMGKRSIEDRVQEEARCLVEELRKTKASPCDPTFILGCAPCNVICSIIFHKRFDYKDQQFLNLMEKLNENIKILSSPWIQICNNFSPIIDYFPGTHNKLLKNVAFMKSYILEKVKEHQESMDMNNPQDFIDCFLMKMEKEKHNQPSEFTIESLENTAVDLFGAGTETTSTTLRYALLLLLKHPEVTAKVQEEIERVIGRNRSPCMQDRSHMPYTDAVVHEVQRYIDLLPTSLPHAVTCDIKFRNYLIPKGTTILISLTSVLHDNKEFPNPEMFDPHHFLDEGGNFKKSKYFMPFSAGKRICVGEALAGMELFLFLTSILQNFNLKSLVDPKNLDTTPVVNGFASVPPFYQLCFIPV
# [15] = molecular target: Cytochrome P450 3A4 (Homo sapiens, UniProt P08684);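 further: CYP3A4 tested as one member of a cytochrome P450 panel screen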
# Cytochrome P450 3A4, sequence (P08684 whole entry): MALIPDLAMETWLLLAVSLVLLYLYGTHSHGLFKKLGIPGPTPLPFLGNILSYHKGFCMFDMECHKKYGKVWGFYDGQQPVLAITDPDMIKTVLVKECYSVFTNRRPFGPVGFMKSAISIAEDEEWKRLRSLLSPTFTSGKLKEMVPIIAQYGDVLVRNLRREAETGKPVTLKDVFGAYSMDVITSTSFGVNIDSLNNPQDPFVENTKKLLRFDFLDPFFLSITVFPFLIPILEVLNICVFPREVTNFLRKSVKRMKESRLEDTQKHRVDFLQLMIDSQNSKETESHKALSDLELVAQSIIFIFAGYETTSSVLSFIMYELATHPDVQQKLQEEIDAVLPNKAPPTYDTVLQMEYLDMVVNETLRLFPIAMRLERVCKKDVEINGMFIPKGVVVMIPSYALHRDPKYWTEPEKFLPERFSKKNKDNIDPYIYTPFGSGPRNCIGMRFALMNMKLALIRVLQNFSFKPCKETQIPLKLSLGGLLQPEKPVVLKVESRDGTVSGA
# [16] = molecular target: T5, Heat shock factor protein 1 (Mus musculus, UniProt P38532); experiment: HSF1 potentiators in luciferase reporter cells, confirmation, cell-based, NIH3T3, luminescence, dose retest (AID 435004); type: functional;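 further: stress induced by proteasome inhibitor MG132 added 30 min after compound; luciferase reporter driven by HSF1 response element in NIH3T3 cells; actives raise luminescence as potentiators of the MG132 stress response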
# T5 sequence (P38532 whole entry): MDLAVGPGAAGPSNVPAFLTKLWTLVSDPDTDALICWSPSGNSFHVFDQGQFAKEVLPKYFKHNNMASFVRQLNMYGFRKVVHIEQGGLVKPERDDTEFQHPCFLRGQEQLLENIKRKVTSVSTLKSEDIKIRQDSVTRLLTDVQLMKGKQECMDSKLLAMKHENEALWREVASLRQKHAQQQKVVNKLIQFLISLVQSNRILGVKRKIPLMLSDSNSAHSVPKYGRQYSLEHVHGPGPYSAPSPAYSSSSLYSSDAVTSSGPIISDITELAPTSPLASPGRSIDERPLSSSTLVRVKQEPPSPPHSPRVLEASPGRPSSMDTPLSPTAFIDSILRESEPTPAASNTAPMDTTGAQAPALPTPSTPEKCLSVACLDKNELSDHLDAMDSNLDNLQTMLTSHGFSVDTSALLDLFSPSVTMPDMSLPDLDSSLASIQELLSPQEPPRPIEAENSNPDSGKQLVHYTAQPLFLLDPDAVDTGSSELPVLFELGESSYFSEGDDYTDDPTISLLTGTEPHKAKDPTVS
# [17] = system: BJ; experiment: cytotoxicity toward BJ-TERT-LT-ST fibroblasts, dose response, cell-based, RAS-independent, luminescence (AID 1935); type: functional; settings: Homo sapiens;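 further: BJ fibroblasts immortalized with TERT plus LT and ST oncogenes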
# [18] = cytotoxicity toward DRD oncogenic fibroblasts, dose response, cell-based, non-viral oncogenic, luminescence (AID 1934); type: functional; settings: Homo sapiens
# [19] = system: BJ; experiment: cytotoxicity toward BJ-TERT fibroblasts, dose response, cell-based, RAS-independent, luminescence (AID 1933); type: functional; settings: Homo sapiens
# [20] = system: BJ; experiment: cells; type: functional, cell-based; settings: Homo sapiens
# [21] = molecular target: Luciferin 4-monooxygenase (Photinus pyralis, UniProt P08659); experiment: firefly luciferase enzyme inhibitors, dose response, biochemical, luminescence (AID 1891)
# Luciferin 4-monooxygenase, sequence (P08659 whole entry): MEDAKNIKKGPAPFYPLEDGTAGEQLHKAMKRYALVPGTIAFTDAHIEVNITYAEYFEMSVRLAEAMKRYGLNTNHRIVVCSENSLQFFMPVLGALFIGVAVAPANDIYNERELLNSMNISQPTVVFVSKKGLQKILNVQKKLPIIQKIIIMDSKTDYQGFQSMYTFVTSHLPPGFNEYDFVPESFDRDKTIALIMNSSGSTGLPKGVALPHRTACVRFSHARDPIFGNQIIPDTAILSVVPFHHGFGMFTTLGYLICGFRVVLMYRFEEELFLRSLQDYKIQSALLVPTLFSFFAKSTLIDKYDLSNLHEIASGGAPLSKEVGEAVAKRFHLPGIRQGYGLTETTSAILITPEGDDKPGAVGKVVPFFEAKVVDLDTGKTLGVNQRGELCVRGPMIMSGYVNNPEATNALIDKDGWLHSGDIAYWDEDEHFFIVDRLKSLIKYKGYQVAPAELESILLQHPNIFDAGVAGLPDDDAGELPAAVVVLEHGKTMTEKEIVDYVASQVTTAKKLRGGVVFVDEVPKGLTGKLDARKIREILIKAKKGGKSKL
# [22] = Luminescence Cell-Based Dose Confirmation HTS to Identify Inhibitors of Platelet Dense Granule Release. [Related pubchem assays: 1663 (Primary HTS), 1678 (Summary of Project)]; type: functional
# [23] = molecular target: FAD-linked sulfhydryl oxidase ALR (Homo sapiens, UniProt P55789); experiment: inhibitors of human ALR sulfhydryl oxidase, dose response, biochemical, H2O2 detection, luminescence, cherry-pick (AID 493248)
# FAD-linked sulfhydryl oxidase ALR, sequence (P55789 whole entry): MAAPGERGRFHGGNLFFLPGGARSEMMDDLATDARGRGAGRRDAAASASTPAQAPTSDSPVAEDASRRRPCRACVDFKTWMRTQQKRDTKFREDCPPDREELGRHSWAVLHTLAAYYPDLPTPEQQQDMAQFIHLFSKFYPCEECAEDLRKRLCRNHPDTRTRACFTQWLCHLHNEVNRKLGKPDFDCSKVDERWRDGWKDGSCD
# Nonstructural protein 1, sequence (Q194T2 whole entry): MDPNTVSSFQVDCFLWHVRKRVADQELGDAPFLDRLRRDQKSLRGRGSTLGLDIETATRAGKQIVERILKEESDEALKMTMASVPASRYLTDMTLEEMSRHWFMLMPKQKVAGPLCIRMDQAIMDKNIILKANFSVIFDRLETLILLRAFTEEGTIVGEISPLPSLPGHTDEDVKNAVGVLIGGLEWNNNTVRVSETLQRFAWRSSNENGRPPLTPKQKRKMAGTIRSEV
smiles,measurement,setting,value
Cc1ccnc(NC(c2cccnc2)c2ccc3cccnc3c2O)c1 (configuration not stated),IC50,[1],8.52 µM (active)
same,EC50,[2],> 350 µM (not active)
same,EC50,[3],> 38 µM (not active)
same,EC50,[4],200 µM (active)
same,EC50,[5],46.7 µM (active)
Cc1cc(/C=C(\C#N)C(=O)Nc2ccccc2)c(C)n1-c1ccc(C(=O)O)cc1,EC50,[6],> 300 µM (not active)
same,EC50,[7],> 300 µM (not active)
CCn1c(-c2ccco2)nc2ccccc21,IC50,[8],> 50 µM (active)
CN(C1CCCC1)C1CCN(C(S)=Nc2cc(F)cc(F)c2)CC1,EC50,[2],> 350 µM (not active)
same,EC50,[4],> 350 µM (not active)
CCn1nc(C)c(/C=C2\CCCC3=C2OC(N)=C(C#N)C3c2c(C)nn(CC)c2C)c1C (configuration not stated),EC50,[6],36 µM (active)
same,EC50,[7],51.8 µM (active)
COc1cc(SC)ccc1C(=O)NCCc1ccccc1,EC50,[2],18.9 µM (active)
same,EC50,[4],> 350 µM (not active)
COC(=O)[C@@]12CCCN1[C@H](c1ccc(-c3ccc(OC)cc3)cc1)[C@@H]1C(=O)N(C)C(=O)[C@@H]12,AC50,[9],38.9 µM (active)
CN=C(S)Nc1ccc(Nc2ccccc2)cc1,IC50,[10],12.3 µM (active)
same,IC50,[11],64.6 µM (active)
Cc1cc(Oc2ccccc2)nc(N2CCOCC2)n1,EC50,[2],> 350 µM (not active)
same,EC50,[4],> 350 µM (not active)
CCOC(=O)c1cc(-c2ccc(N)cc2)sc1N,IC50,[10],9.87 µM (active)
N=C1/C(=C\c2ccc(O)cc2)C(=O)N=C2SC(CC(=O)N3CCCCC3)=NN12,IC50,[10],14.2 µM (active)
CCOc1ccc(-c2nn(-c3ccccc3)cc2/C=C2\SC(=S)N(C3CCS(=O)(=O)C3)C2=O)cc1 (configuration not stated),EC50,[6],> 300 µM (not active)
same,EC50,[7],> 300 µM (not active)
same,EC50,[12],13.1 µM (active)
O=C(CN1CCCCC1)Nc1nnc(-c2ccc([N+](=O)[O-])cc2)s1,AC50,[13],inconclusive
same,AC50,[14],17.8 µM (inconclusive)
same,IC50,[8],29.9 µM (active)
COc1ccc(C2(O)CCN(CCCCOc3ccccc3)CC2)cc1,IC50,[8],32.8 µM (active)
O=C(COC(=O)COc1ccc(Nc2ccccc2)cc1)NCc1ccco1,IC50,[11],77.4 µM (active)
same,IC50,[8],4.72 µM (active)
Cc1ccccc1NC(=O)/C(C#N)=C/c1ccc(-c2ccc(Cl)c(C(=O)O)c2)o1,EC50,[6],> 300 µM (not active)
same,EC50,[7],> 300 µM (not active)
COc1cc(C2C(C#N)=C(N)OC3=C2C(=O)CCC3)cc(OC)c1OC(=O)N1CCOCC1 (configuration not stated),EC50,[6],> 300 µM (not active)
same,EC50,[7],> 300 µM (not active)
same,AC50,[15],25.1 µM (inconclusive)
same,AC50,[14],22.4 µM (inconclusive)
CCc1ccc(NC(=O)N(CCN2CCOCC2)Cc2ccc3c(c2)CCCN3CC)cc1,IC50,[1],40.6 µM (active)
C=CCn1c(=S)[nH]c2nc3c(cc2c1=O)COC(C)(C)C3,EC50,[6],> 300 µM (not active)
same,EC50,[7],> 300 µM (not active)
COC(=O)/C(C#N)=C/c1c(N2CCN(Cc3ccc4c(c3)OCO4)CC2)nc2c(C)cccn2c1=O,EC50,[2],> 350 µM (not active)
same,EC50,[4],> 350 µM (not active)
Cc1c(C)n(Cc2ccccc2)c2ncnc(NN)c12,IC50,[10],> 100 µM (active)
O=C(COc1ccc(Cl)cc1)Nc1ccc(Cl)cn1,IC50,[8],30.3 µM (active)
CCOC(=O)C(C)Oc1cc(Cl)c(C=O)cc1OC (configuration not stated),EC50,[16],> 260 µM (inactive)
same,IC50,[8],24.4 µM (active)
Fc1cccc(/C=N/Nc2nccnc2Cl)c1,EC50,[17],> 75 µM (inconclusive)
same,EC50,[2],7.47 µM (active)
same,EC50,[18],11.3 µM (active)
same,EC50,[19],11.9 µM (active)
same,EC50,[20],11 µM (active)
same,EC50,[21],3.81 µM (active)
same,EC50,[4],> 350 µM (not active)
same,EC50,[22],2.26 µM (active)
C/C(=N\NC(=O)c1ccc([N+](=O)[O-])c(C)c1)c1ccccc1Cl,IC50,[8],42.2 µM (active)
CSc1nncc(/C(C)=N\Nc2ccccc2)n1,EC50,[6],41.3 µM (active)
same,EC50,[7],> 300 µM (not active)
same,AC50,[15],2.51 µM (inconclusive)
COc1cccc(C2C3=C(N=c4s/c(=C\c5ccccc5O)c(=O)n42)c2ccccc2CC3)c1OC (configuration not stated),EC50,[2],> 350 µM (not active)
same,EC50,[4],> 350 µM (not active)
COc1cc(/C=N\NC(=O)CC(=O)NCCc2ccccc2)ccc1O,IC50,[10],7.57 µM (active)
same,IC50,[11],27.4 µM (active)
same,AC50,[23],1.7 µM (active)
